Where two headings read alike, the source gives them in different places.
System: NCYC361 and other strains
Settings: for doubling time: YPD supplemented with 100 mg/L of iron sulfate vs YPD
Experimental: Shown are the average and standard deviation of the doubling times measured for each strain in YPD and in YPD supplemented with 100 mg/L of iron sulfate. […] Data represent three biological replicates.

## O.O.O.O.O.O.O.O=S(=O)([O-])[O-].[Fe+2] [iron sulfate, iron (II) sulfate heptahydrate]
NCYC361
  growth with iron supplementation to YPD: partially alleviated the slow growth
NCYC361, p<0.0008
  doubling time: faster
Any other strain
  doubling time: not significantly different
